According to ChEMBL document CHEMBL5344454 (ACS Med Chem Lett, 2024):

Test: Inhibition of Huntingtin polyQ 49 mutant in Huntington's disease patient derived human iPSC cells incubated for 48 hrs by HTRF assay
Assay type: cell-based

IC50 [nM]	Structure (SMILES)
< 100	Cc1cn2nc(-c3cc(F)c4nc(N5CCC(N(C)C)CC5)oc4c3)cc(C(F)(F)F)c2n1
< 100	Cc1cn2nc(-c3cc(F)c4nn(C5CCNCC5)nc4c3)cc(C(F)F)c2n1
< 100	Cc1cn2nc(-c3cc(F)c4nc(C5CCN(C6COC6)CC5)cn4c3)cc(C)c2n1
< 100	Cc1cn2nc(-c3cc(F)c4nc(C5CCNC5)cn4c3)cc(C)c2n1 (stereo unspecified)
< 100	Cc1cn2nc(-c3cc(F)c4nc(C5CCNCC5)cn4c3)cc(C)c2n1
< 100	Cc1cn2nc(-c3cc(F)c4nc(C5CCN(C6CC6)CC5)cn4c3)cc(C(F)F)c2n1
